We go through one compound from patent US6001359A, “Diagnosis of colon carcinoma using monoclonal antibodies to human influx peptide transporter” (Eli Lilly and Company, priority 1997, dated 1999).

Assay [1] concerns the target T1, influx peptide transporter (Homo sapiens, UniProt Q12864).
T1 construct: about 120 kDa antigen of MAb PTC13G6
T1 sequence (Q12864 23-832): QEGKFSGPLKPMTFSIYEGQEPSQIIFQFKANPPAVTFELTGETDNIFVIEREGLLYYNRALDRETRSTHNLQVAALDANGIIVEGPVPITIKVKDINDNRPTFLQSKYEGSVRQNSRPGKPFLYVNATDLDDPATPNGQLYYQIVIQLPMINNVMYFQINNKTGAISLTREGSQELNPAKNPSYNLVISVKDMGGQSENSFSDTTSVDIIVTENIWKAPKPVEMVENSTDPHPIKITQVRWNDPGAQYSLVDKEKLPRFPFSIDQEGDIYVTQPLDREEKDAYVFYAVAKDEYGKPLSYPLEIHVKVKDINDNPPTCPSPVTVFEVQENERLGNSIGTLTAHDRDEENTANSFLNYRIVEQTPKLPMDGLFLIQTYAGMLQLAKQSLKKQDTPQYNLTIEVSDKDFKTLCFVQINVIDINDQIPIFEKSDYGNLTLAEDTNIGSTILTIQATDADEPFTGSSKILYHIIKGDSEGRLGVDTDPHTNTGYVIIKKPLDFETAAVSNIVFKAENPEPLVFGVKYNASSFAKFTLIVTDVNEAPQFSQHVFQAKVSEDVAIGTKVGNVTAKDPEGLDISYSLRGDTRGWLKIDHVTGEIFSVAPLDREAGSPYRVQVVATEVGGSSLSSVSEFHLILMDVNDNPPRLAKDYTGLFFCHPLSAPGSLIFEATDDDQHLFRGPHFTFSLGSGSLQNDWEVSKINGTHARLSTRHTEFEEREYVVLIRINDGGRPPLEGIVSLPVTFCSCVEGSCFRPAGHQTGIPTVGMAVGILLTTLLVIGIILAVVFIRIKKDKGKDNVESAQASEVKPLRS
The experiment in a line: [14C]cephalexin uptake by CHO-K1 transfectant Clone 9 (plasmid pPSJ179). Format: cell-based. How it is done:
(§1) The samples were incubated at room temperature for 20 minutes.

The next assay concerns CHO-K1 cells. The assay can be described thus: [14C]cephalexin uptake by control CHO-K1 cells (plasmid pRc/RSV). The format is cell-based, Chinese hamster. The procedure: as §1

As to `CC(C)C[C@H](NC(=O)[C@@H](O)[C@H](N)Cc1ccccc1)C(=O)O` [bestatin], the “[14C]-Cephalexin Uptake in presence of bestatin” value in assay [1] (1 mM [14C]cephalexin + 15 mM bestatin) was 0.42 ± 0.08 nmol/mg total cell protein; in the assay on CHO-K1 cells (Control cells, 1 mM [14C]cephalexin + 15 mM bestatin), 0.38 ± 0.08 nmol/mg total cell protein. Moreover, in assay [1] (15 mM bestatin or 25 mM unlabelled cephalexin), the “effect on uptake of 1 mM cephalexin by the transfectant” value is recorded as “inhibited”. In addition, the “drug uptake on coincubation, compared with control cells” value in assay [1] (coincubation with 1 mM [14C]cephalexin) is on record as “decreased drug uptake in the representative transfectant (Clone 9) to the level of the control cells”. Further, the “effect on transport of 1 mM [14C]cephalexin by the control cells” value in the assay on CHO-K1 cells (control cells, bestatin or cephalexin) is “not inhibited significantly”.
